# What was measured:
# mice fed high fat diet = test: Zinc supplementation of high fat diet in mice (DIO); type: in vivo; conditions: for hepatic zinc levels: zinc-supplemented diet
# Experimental: Four groups of 6-week old male mice (16 per group) were fed either normal chow or high fat diets supplemented with different zinc concentrations for either 4 or 6 weeks (FIG. 2A). The levels of zinc were analyzed after 4 weeks (FIGS. 2B and 2C) and after 6 weeks (FIGS. 2D and 2E).
# [1] = system: human hepatoma HepG2 cells; test: Zinc activation of LKB1/AMPK and AKT signaling in HepG2 cells; type: cell-based; conditions: acute, dose dependent
# [2] = system: human primary hepatocytes; test: Zinc activation of LKB1/AMPK and AKT signaling in primary hepatocytes; type: cell-based; conditions: acute, dose dependent
# Experimental: Liver protein was extracted using RIPA buffer (Cell signaling technology, Cat #9806) with Halt Protease & Phosphatase Inhibitor Cocktail (ThermoFisher Scientific, Cat #78440). Five microgram protein of each sample were separated in NuPAGE 4-12% Bis-Tris protein gel (Invitrogen, Cat #WG1403BOX), and transferred to nitrocellulose membrane using Trans-Blot® Turbo™ Transfer System (BioRad). Blotting was performed using the following Cell Signaling Technology antibodies: Phospho-AMPKα (Thr172) (Cell signaling technology, Cat #2535), AMPKα (Cell signaling technology, Cat #5831), β-Actin (Sigma, Cat #5441), Phospho-AKT (Ser473) (Cell signaling technology, Cat #4060), AKT (Cell signaling technology, Cat #9272), Phospho-LKB1 (Ser428) (Cell signaling technology, Cat #3482), LKB1 (Cell signaling technology, Cat #3050), rabbit IgG conjugated to horseradish peroxidase (HRP) (Cell signaling technology, Cat #7074) and mouse IgG conjugated to HRP (Cell signaling technology, Cat #7076). Blots were developed using SuperSignal West Femto Substrate (ThermoFisher Scientific, Cat #34095). Signals were captured using ImageQuant LAS4000 (GE Healthcare).
# tyrosine phosphatase [3] = test: Dependence of tyrosine phosphatase activity on zinc concentration; type: biochemical; conditions: increased concentrations of zinc
# [4] = system: serine/threonine phosphatase; test: Dependence of serine/threonine phosphatase activity on zinc concentration; type: biochemical; conditions: increased concentrations of zinc
# tyrosine phosphatase [5] = test: Ex vivo tyrosine phosphatase activity in SLC39A5 loss-of-function mice, diet zinc supplementation; conditions: high fat diets supplemented with different zinc concentrations, ex vivo assay
# [6] = system: serine/threonine phosphatase; test: Ex vivo serine/threonine phosphatase activity in SLC39A5 loss-of-function mice, diet zinc supplementation; conditions: high fat diets supplemented with different zinc concentrations, ex vivo assay
smiles,measurement,setting,value
[Zn] [zinc],fat accumulation in liver (microscopic analysis),mice fed high fat diet; high fat diet supplemented with zinc,reverses fat accumulation in liver
same,"intravenous glucose tolerance test, blood glucose","mice fed high fat diet; high fat diet with increasing diet zinc concentration, 4 or 6 weeks",mitigated blood glucose increase mediated by high fat diet
same,"intravenous glucose tolerance test, area under the curve","mice fed high fat diet; high fat diet with increasing diet zinc concentration, effect not statistically significant",reduced area under the curve
same,serum zinc levels,"mice fed high fat diet; male mice, diets supplemented with different zinc concentrations, 4 and 6 weeks",no significant change
same,hepatic zinc levels,"mice fed high fat diet; male mice, after 4 weeks",no significant change
same,hepatic zinc levels,"mice fed high fat diet; male mice, after 6 weeks, correlated with level of zinc in diet",statistically significant increase
same,LKB1/AMPK and AKT signaling pathways,[1],acutely activates LKB1/AMPK and AKT signaling pathways in dose dependent manner
same,LKB1/AMPK and AKT signaling pathways,[2],acutely activates LKB1/AMPK and AKT signaling pathways in dose dependent manner
same,tyrosine phosphatase activity,tyrosine phosphatase [3],suppressed the activity
same,serine/threonine phosphatase activity,[4],suppressed the activity
same,rescue of tyrosine phosphatase inhibition caused by loss of SLC39A5,tyrosine phosphatase [5],did not rescue the inhibition
same,rescue of serine/threonine phosphatase inhibition caused by loss of SLC39A5,[6],did not rescue the inhibition
